For this assay, the system named is BDF1 mice, P388 leukemia ip, median survival T/C. The assay is described as follows: NCI In Vivo Anticancer Drug Screen. Data for tumor model P388 Leukemia (intraperitoneal) in B6D2F1 (BDF1) mice. The settings on record: endpoint: median survival time, higher = longer survival. The gist of the method: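 Mice carrying the transplantable tumour receive compound or vehicle. Survival is followed in each arm, and the treated measure is divided by the vehicle measure.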

Setting [1] is: dose: 50.0 mg/kg/injection, schedule: Q04DX003 (ip), vehicle: saline.
Where [2] appears, read: dose: 25.0 mg/kg/injection, schedule: Q01DX009 (ip), vehicle: water.
The mark [3] stands for this setting: dose: 50.0 mg/kg/injection, schedule: Q01DX009 (ip), vehicle: water.
[4] abbreviates: dose: 50.0 mg/kg/injection, schedule: Q04DX003 (ip), vehicle: water.
The mark [5] stands for this setting: dose: 100.0 mg/kg/injection, schedule: Q01DX009 (ip), vehicle: water.
Setting [6] is: dose: 100.0 mg/kg/injection, schedule: Q04DX003 (ip), vehicle: water.
[7] abbreviates: dose: 100.0 mg/kg/injection, schedule: Q01DX009 (ip), vehicle: saline with Tween-80.
[8] abbreviates: dose: 100.0 mg/kg/injection, schedule: Q04DX003 (ip), vehicle: saline with Tween-80.
[9] abbreviates: dose: 200.0 mg/kg/injection, schedule: Q01DX009 (ip), vehicle: saline with Tween-80.
Where [10] appears, read: dose: 200.0 mg/kg/injection, schedule: Q04DX003 (ip), vehicle: saline with Tween-80.
Where [11] appears, read: dose: 400.0 mg/kg/injection, schedule: Q04DX003 (ip), vehicle: saline with Tween-80.
Setting [12] is: dose: 25.0 mg/kg/injection, schedule: Q01DX009 (ip), vehicle: Klucel (hydroxypropylcellulose) (HPC).
Where [13] appears, read: dose: 50.0 mg/kg/injection, schedule: Q01DX009 (ip), vehicle: Klucel (hydroxypropylcellulose) (HPC).
[14] abbreviates: dose: 100.0 mg/kg/injection, schedule: Q01DX009 (ip), vehicle: Klucel (hydroxypropylcellulose) (HPC).

Where “and” joins values, the source holds several entries; their conditions need not be identical. Equal values may be shown once. Inconclusive results and toxic doses are left out. Non-standard residues stand in square brackets, D forms with d. Residues, ends and D or L forms follow the SMILES beside them. ξ: configuration not given here. ξPhe(4-N(CH2CH2Cl)2) = NC(Cc1ccc(N(CCCl)CCCl)cc1)C(=O)O

Results on 18 compounds are retold here after PubChem BioAssay AID328 (DTP/NCI, 2004).

In the case of `CCCC1CC[N-]CC1.CCCC1CC[N-]CC1.CCCC1CC[N-]CC1.CCCC1CC[N-]CC1.[Cl][Ni][Cl]`, the T/C (dose: 2.0 mg/kg/injection, schedule: Q01DX009 (ip), vehicle: saline) is 116 % of control; the T/C (dose: 4.0 mg/kg/injection, schedule: Q01DX009 (ip), vehicle: saline) is 97 % of control; the T/C (dose: 6.25 mg/kg/injection, schedule: Q01DX009 (ip), vehicle: saline) is 112 % of control; the T/C (dose: 8.0 mg/kg/injection, schedule: Q01DX009 (ip), vehicle: saline) was 116 % of control; the T/C under setting [1] is 100 % of control.
For `COc1ccc(CNCCNCc2ccc(OC)cc2)cc1`, the T/C is 98 % of control (dose: 12.5 mg/kg/injection, schedule: Q01DX009 (ip), vehicle: water); 100 % of control under setting [2]; 95 % of control (dose: 25.0 mg/kg/injection, schedule: Q04DX003 (ip), vehicle: water); 115 % of control under setting [3]; 95 % of control under setting [4]; 92 % of control and 107 % of control under setting [5]. The T/C under setting [6] was 100 % of control and 109 % of control.
`CC1=CCCC(C)C12CCC(C(C)(C)O)C2` (centres undefined): the T/C is, setting by setting: under setting [7], 92 % of control; under setting [8], 100 % of control; under setting [9], 92 % of control; under setting [10], 113 % of control; under setting [11], 118 % of control.
As to `CCN(CC)CCCC(C)Nc1ncnc(N)c1[N+](=O)[O-]` (centres undefined), the T/C runs as follows: (dose: 25.0 mg/kg/injection, schedule: Q01DX009 (ip), vehicle: saline) 120 % of control; (dose: 25.0 mg/kg/injection, schedule: Q04DX003 (ip), vehicle: saline) 90 % of control; (dose: 50.0 mg/kg/injection, schedule: Q01DX009 (ip), vehicle: saline) 120 % of control; under setting [1], 95 % of control; (dose: 100.0 mg/kg/injection, schedule: Q01DX009 (ip), vehicle: saline) 90 % of control; (dose: 100.0 mg/kg/injection, schedule: Q04DX003 (ip), vehicle: saline) 100 % of control.
Regarding `Nc1c(Cl)cc(S(N)(=O)=O)cc1Cl`, the T/C was 86 % of control under setting [7]; 104 % of control under setting [8]; 90 % of control under setting [9]; 104 % of control under setting [10]; 100 % of control under setting [11].
As to `CCNC(C)(C)C(Cl)c1ccc(Cl)s1` (centres undefined), the T/C is, setting by setting: under setting [12], 91 % of control; (dose: 25.0 mg/kg/injection, schedule: Q04DX003 (ip), vehicle: saline with Tween-80) 104 % of control; under setting [13], 104 % of control; (dose: 50.0 mg/kg/injection, schedule: Q04DX003 (ip), vehicle: saline with Tween-80) 101 % of control; under setting [8], 95 % of control.
On to `Cc1ccc(S(=O)(=O)OC2CS(=O)(=O)C2)cc1`, for which the T/C (dose: 25.0 mg/kg/injection, schedule: Q01DX009 (ip), vehicle: saline with Tween-80) is 102 % of control; the T/C (dose: 50.0 mg/kg/injection, schedule: Q01DX009 (ip), vehicle: saline with Tween-80) is 100 % of control; the T/C under setting [7] is 102 % of control; the T/C under setting [9] was 102 % of control.
Take `C1CN1c1nc(N2CC2)nc(N2CC2)n1`: the T/C reads like this: (dose: 0.05 mg/kg/injection, schedule: Q01DX009 (ip), vehicle: saline) 175 % of control; (dose: 0.1 mg/kg/injection, schedule: Q01DX009 (ip), vehicle: saline) 115 % of control; (dose: 0.13 mg/kg/injection, schedule: Q01DX010 (ip), vehicle: saline) 109 % of control; (dose: 0.25 mg/kg/injection, schedule: Q01DX010 (ip), vehicle: saline) 150 % of control; (dose: 0.25 mg/kg/injection, schedule: Q01DX010 (ip), vehicle: water) 190 % of control; (dose: 0.4 mg/kg/injection, schedule: Q01DX009 (ip), vehicle: saline) 159 % of control. Further, the T/C (dose: 0.5 mg/kg/injection, schedule: Q01DX009 (ip), vehicle: saline) is 200 % of control; the T/C (dose: 0.5 mg/kg/injection, schedule: Q01DX010 (ip), vehicle: saline) is 272 % of control; the T/C (dose: 0.5 mg/kg/injection, schedule: Q01DX010 (ip), vehicle: water) was 268 % of control; the T/C (dose: 0.75 mg/kg/injection, schedule: Q01DX010 (ip), vehicle: water) is 268 % of control; the T/C (dose: 0.8 mg/kg/injection, schedule: Q01DX009 (ip), vehicle: saline) is 86 % of control.
For the compound `COc1ccc(C(O)(CS(C)=O)c2cccs2)cc1` (centres undefined), the T/C reads like this: under setting [7], 107 % of control; under setting [9], 99 % of control.
As for `N\C([S-])=N/N=C\C(=N/N=C(\N)[S-])C(O)C(O)C(O)CO.[Rh+2]` (centres undefined), the T/C reads like this: (dose: 100.0 mg/kg/injection, schedule: Q01DX001 (ip), vehicle: Klucel (hydroxypropylcellulose) (HPC)) 100 % of control; (dose: 200.0 mg/kg/injection, schedule: Q01DX001 (ip), vehicle: Klucel (hydroxypropylcellulose) (HPC)) 104 % of control; (dose: 400.0 mg/kg/injection, schedule: Q01DX001 (ip), vehicle: Klucel (hydroxypropylcellulose) (HPC)) 109 % of control.
For the compound `CCOC(=O)C(C#N)c1cccc(C)c1` (centres undefined), the T/C was 100 % of control under setting [8] and 100 % of control under setting [10].
Consider `Fc1ccc(-c2n[nH]c3c2CCCc2ccccc2-3)cc1`, for which the T/C was 114 % of control under setting [8], 114 % of control under setting [10] and 123 % of control under setting [11].
Turning to `CCCNC(=O)Nc1cccc(Cl)c1C`, the T/C under setting [8] was 104 % of control, the T/C under setting [10] was 100 % of control and the T/C under setting [11] is 100 % of control.
With `O=C1c2ccccc2-c2ccc(Br)c3cccc1c23`, the T/C was 100 % of control under setting [13]; 100 % of control under setting [14]; 100 % of control (dose: 200.0 mg/kg/injection, schedule: Q01DX009 (ip), vehicle: Klucel (hydroxypropylcellulose) (HPC)).
Regarding `CCOC(=O)C(C)(C(=O)OCC)c1ccccc1`, the T/C is 104 % of control under setting [7]; 115 % of control under setting [8]; 113 % of control under setting [9]; 110 % of control under setting [10]; 118 % of control (dose: 400.0 mg/kg/injection, schedule: Q01DX009 (ip), vehicle: saline with Tween-80); 115 % of control under setting [11].
`CCOC(=O)C(Cc1ccc(N(CCCl)CCCl)cc1)NC(=O)C(CCC(=O)O)NC(=O)C(CO)NC(=O)C(CCC(=O)O)NC(=O)C(N)CO` (centres undefined) (H-SESE[ξPhe(4-N(CH2CH2Cl)2)]-OEt; configuration not given here): the T/C is, setting by setting: (dose: 5.0 mg/kg/injection, schedule: Q04DX003 (ip), vehicle: water) 97 % of control; (dose: 10.0 mg/kg/injection, schedule: Q04DX003 (ip), vehicle: water) 99 % of control; (dose: 20.0 mg/kg/injection, schedule: Q04DX003 (ip), vehicle: water) 100 % of control; (dose: 40.0 mg/kg/injection, schedule: Q04DX003 (ip), vehicle: water) 100 % of control.
In the case of `CCOC(=O)c1cc(C(=O)OCC)c(C#N)c(=O)[nH]1`, the T/C by setting is: under setting [14], 96 % of control; (dose: 100.0 mg/kg/injection, schedule: Q04DX003 (ip), vehicle: Klucel (hydroxypropylcellulose) (HPC)) 91 % of control; (dose: 200.0 mg/kg/injection, schedule: Q04DX003 (ip), vehicle: Klucel (hydroxypropylcellulose) (HPC)) 91 % of control; (dose: 400.0 mg/kg/injection, schedule: Q01DX009 (ip), vehicle: Klucel (hydroxypropylcellulose) (HPC)) 92 % of control; (dose: 400.0 mg/kg/injection, schedule: Q04DX003 (ip), vehicle: Klucel (hydroxypropylcellulose) (HPC)) 100 % of control.
For the compound `[Cl][Pt+2]([Cl])([Cl])[Cl].c1ccc(C2CC[N-]CC2)cc1.c1ccc(C2CC[N-]CC2)cc1`, the T/C was 121 % of control under setting [12]; 103 % of control and 122 % of control under setting [2]; 112 % of control under setting [13]; 112 % of control under setting [3]; 109 % of control under setting [4]; 121 % of control under setting [14]. Moreover, the T/C reads like this: under setting [5], 90 % of control; under setting [6], 105 % of control; (dose: 200.0 mg/kg/injection, schedule: Q04DX003 (ip), vehicle: water) 98 % of control; (dose: 400.0 mg/kg/injection, schedule: Q04DX003 (ip), vehicle: water) 89 % of control.
